“Also recorded” adds a separate entry of the source.
Experiments:
Assay type in all cases: physicochemical
[1] = solubility in water / aqueous environments
[2] = solid-form stability on standing (conversion to other forms); details: crystalline non-solvate form
[3] = hygroscopicity of the crystalline non-solvate form in humid or dry air

solubility in water [1]: very poorly soluble in water
hygroscopicity [3]: non-hygroscopic
SMILES: COc1cc(F)c(C(C)C)cc1-c1ccc(C(F)(F)F)cc1CN1C(=O)O[C@H](c2cc(C(F)(F)F)cc(C(F)(F)F)c2)[C@@H]1C [compound 12, (4S,5R)-5-[3,5-bis(trifluoromethyl)phenyl]-3-{[4′-fluoro-5′-isopropyl-2′-methoxy-4-(trifluoromethyl)biphenyl-2-yl]methyl}-4-methyl-1,3-oxazolidin-2-one]
conversion of crystal form on standing ([2]; elevated temperatures): converts more rapidly to the amorphous form at elevated temperatures
conversion of crystal form on standing ([2]; room temperature): slowly converts to the amorphous form on standing for long periods of time; also recorded: stable at room temperature for moderate periods of time with respect to changing to the amorphous form
hydrate formation [3]: does not convert to a hydrate in humid or dry air
